US9532569B2 (INSTITUT NATIONAL DE LA RECHERCHE AGRONOMIQUE, priority 2012, dated 2017)

How the values were obtained:
pea mutant rms1 = assay: Inhibition of branching in the pea, application directly on the axillary bud; assay type: in vivo, Pisum sativum L.; conditions: for bud growth inhibition (length of bud/branch at node 3, 8 days after treatment at node 3): Experiment 3, FIG. 5
Description: Generally, in the pea, the first two scales are considered to be the first two nodes, the cotyledonary node being node 0.
The rms1 mutant is an “SMS” signal biosynthesis mutant, repressing branching of the plant.
Tests for activity on the inhibition of branching were carried out in the following way.
The strigolactone-deficient rms1 (ccd8) pea mutants described in Beveridge et al., 1997, were used for the test (M3T884 line derived from the Térèse variety).
The activity of the compounds (IIa), (II′d) and (II′e) in accordance with the invention and of the comparative compound GR24 was evaluated at respective doses of 10 nM, 100 nM and 1 μM, by treatment at node 3. […]
24 plants were sown per treatment. 8 days after sowing, the treatment was carried out on the axillary bud at node 3, by application of 10 μl of each solution to be tested, directly on the bud, by means of a micropipette. The lateral outgrowths at nodes 1 and 2 were removed in order to encourage the growth of the axillary buds at the higher nodes. […]
The activity of the compounds (IIa), (IIb), (IIc), (II′d), (II′e) and (II′f) in accordance with the invention was evaluated at respective doses of 100 nM and 1 μM, by treatment at node 3.
For this, solutions containing each compound to be tested, in 1% acetone, 4% propylene glycol 1450 and 50% ethanol, were used.
The activity of the compounds (IIa), (IIIa), (IIIb) and (IIIc) in accordance with the invention, and also of GR24 as comparative compound, was evaluated at respective doses of 100 nM and 1 μM, by treatment at node 3, according to the protocol described above with reference to experiment 2.
A sample consisting only of the solvent, and without active compound, was also tested as negative control, termed “CTL 0”.
In this experiment, the activity of the compound (IIIa) in accordance with the invention, and also of GR24 as comparative compound, was evaluated at respective doses of 1 nM, 10 nM, 100 nM and 1 μM, by treatment at node 3, according to the protocol described above with reference to experiment 2, for doses of 10 nM, 100 nM and 1 μM of compounds.
A sample consisting only of the solvent, and without active compound (“CTL 0”) was also tested as a negative control. A nontreated (“NT”) control was also carried out.
(§1) A dose-response test for evaluating the activity of the compounds by deposition at node 3 was carried out according to the protocol described above with reference to experiment 2, for the compound in accordance with the invention (IIa) and for the comparative compounds GR24, Comp. 3 and Comp. 4. Concentrations of 10 nM, 100 nM and 1 μM were tested.
A sample consisting only of the solvent, and without active compound (“CTL 0”), was also tested as a negative control. A nontreated (“NT”) control was also carried out.
as §1, with “Comp. 5” for “Comp. 3”, “Comp. 6.” for “Comp. 4.”, “10 nM and” for “10 nM,”, “nM” for “nM and 1 μM”, “tested. […]” for “tested.”
The sprouting of the axillary buds at node 4 was measured 8 days after the treatment by means of a digital sliding caliper.
The activity of the compound (IIIa) in accordance with the invention on bud growth at node 3 was evaluated at a dose of 1000 nM by treatment at node 3. The GR24 compound was tested at the same concentration as comparative compound. […]

pea rms1 mutants = assay: Hydroponic culture test in pea; assay type: in vivo, Pisum sativum L.; conditions: 8 days
Description: For this example, ramosus (rms1) hyperbranched pea (Pisum sativum L.) mutants were used.
More particularly, rms1 (rms1-10) hyperbranched mutant plants were used. The nutritive solution (100%) was prepared by adding the following macronutrients to 1000 l of water: HNO3 (0.28 l), (NH4)2HPO4 (120 g), Ca(NO3)2 (40 g), Mg(NO3)2 (140 g), KNO3 (550 g), (NH4)2MoO4 (0.05 g), H3BO3 (15 g), MnSO4.H2O (2 g), ZnSO4.7H2O (1 g), CuSO4.5H2O (0.25 g), Sequestrene® (10 g) (Fe-EDTA solution). The pea seeds were germinated in moist sand for 6 days, then placed in holes of a lid (35 holes/lid, 20 mm in diameter) of an opaque PVC pot containing the hydroponic culture solution (47 l, pH 5.8).
In a first experiment, acetone or the compound to be tested (dissolved in acetone) was added to the hydroponic culture solution so as to obtain a final concentration of 0 or 1 μM of compound to be tested and 0.01% of acetone.
The hydroponic culture solution was continually aerated by means of an aquarium pump and replaced each week. 8 days after the start of the treatment, the lengths of bud/branch (nodes 1 to 6) were measured with an electronic sliding caliper.
This experiment was carried out for the compounds according to the invention (IIa) and (IIIb), and also the GR24 compound as comparative compound. A negative control (<<CTL 0>>), corresponding to a treatment with the solvent alone, was also carried out.
The results (mean data on 20 plants), in terms of, on the one hand, length of the branches at nodes 3 to 5 and, on the other hand, plant height, are shown respectively in FIGS. 11 and 12.
The same experiment was carried out for the compound in accordance with the invention (II″g) and the comparative compound GR24. Dimethyl sulfoxide (DMSO) or the compound to be tested, dissolved in DMSO, was added to the hydroponic culture solution so as to obtain a final concentration of 0 or 3 μM of compound to be tested and 0.01% of DMSO.
The results (mean data on 10 to 12 plants), in terms, on the one hand, of length of the branches at nodes 3 to 4 and, on the other hand, of plant height, are shown respectively in FIGS. 13 and 14.

MRC5 cells = assay: In vitro cytotoxicity study on MRC5 cells (MTS); assay type: cell-based, human; conditions: Homo sapiens, MRC5, 72 hours, ± standard error, read-out: Percentage inhibition of MRC5 cell growth; for inhibition at 100 µM: 10^−4M; for inhibition at 10 µM: 10^−5M
Description: The cytotoxicity of the compound (IIa) according to the invention, and that of GR24 and of GR5 as comparative compounds, was evaluated in vitro, at concentrations of 10^−4 M and 10^−5 M, on MRC5 cells, in DMSO, in the following way.
MRC5 cells (human lung (fibroblasts) were cultured in Dulbecco's modified Eagle medium (DMEM) supplemented with: 25 mM of glucose, 10% (v/v) of fetal calf serum, 100 IU of penicillin, 100 μg/ml of streptomycin and 1.5 μg/ml of fungizone, and kept under 5% of CO2 at 37° C.
96-well plates were seeded with 2100 MRC5 cells per well in 200 μl of medium. After 24 hours, each of the compounds dissolved in DMSO was added for 72 hours, at a final concentration of 10^−4 M or 10^−5 M in a fixed volume of DMSO. The controls received an equal volume of DMSO.
The viable cell number was measured at 490 nm with the MTS reagent (Promega), and, for each compound, the concentration causing 50% inhibition of cell growth, IC50, was calculated.

Orobanche cumana = assay: Germinative activity on parasitic plants; assay type: in vivo; conditions: counted after 4 days
Description: (§2) In this example, the germinative activity of the compounds in accordance with the invention (IIa) and (IIIb) and of the comparative compound GR24 was evaluated on the parasitic plants: Orobanche cumana, Orobanche minor, Striga hermonthica, Phelipanche ramosa (pv T and pv C).
(§3) The test protocol used was the following.
(§4) Seeds of Orobanche cumana Wallr. were collected from broomrapes parasitizing sunflower (Helianthus annuus L.), at Longeville-sur-mer, France, in 2009; seeds of clover broomrape (Orobanche minor Sm.) from a parasite of red clover (Trifolium pratense L.) were obtained from Professor K. Yoneyama (Utsunomiya University, Japan).
(§5) The seeds are stored dry in the dark at 25° C.
(§6) The compounds to be studied were resuspended in acetone at 10 mmol·l^−1, then diluted with water to 1 mmol·l^−1 (water/acetone; v/v; 99/1). Dilutions of 1×10^−3 mol·l^−1 to 1×10^−15 mol·l^−1 were then prepared in a water/acetone mixture (v/v; 99/1). Seeds of parasitic plants were surface-sterilized according to the protocol described in the publication by Vieira Dos Santos et al. (2003), then resuspended in sterile water (10 g·l^−1) and distributed on a 96-well plate (in a proportion of 50 μl, i.e. approximately 100 seeds per well). After preconditioning (7 days, 21° C., in the dark, plate hermetically sealed, except for the seeds of S. hermonthica, which were preconditioned at 30° C.), the compounds to be studied were added and the volumes adjusted to 100 μl with water (water/acetone; v/v; 999/1).
(§7) In a plate, a range of concentrations from 10^−13 mol·l^−1 to 10^−6 mol·l^−1 was applied for GR24 and (IIa) and from 10^−12 to 10^−5 mol·l^−1 for (IIIb). Controls were carried out with a water/acetone mixture (v/v; 999/1) and without seeds. The plates were incubated so as to allow germination (21° C., in the dark or 30° C. for Striga hermonthica.). After 4 days, the seeds which had germinated were counted under a stereomicroscope (SZX10, Olympus). The seeds were considered to have germinated when the radicle was sticking out of the seed tegument. Each germination test was repeated at least 3 times. For each compound tested, dose-response curves (g=f(c), where g is the germination percentage and c the concentration (mol·l^−1)), and the EC50 (median effective concentration) were modeled on the basis of a 4-parameter logistic curve calculated with SigmaPlot® 10.0.
(§8) The percentages of maximum germination induced by the compounds tested for each parasitic plant were determined.

Orobanche minor = assay: Germinative activity on parasitic plants; assay type: in vivo; conditions: counted after 4 days
Description: as §2, §3, §4, §5, §6, §7, §8

Striga hermonthica = assay: Germinative activity on parasitic plants; assay type: in vivo; conditions: counted after 4 days, 30° C.
Description: as §2, §3
Seeds of Striga hermonthica (Del.) Benth were collected at Gadarif, Eastern Sudan, in 1999.
as §5, §6
as §7, with “The seeds were considered to have germinated when the radicle was sticking out of the seed tegument. Each germination test was repeated at least 3 times.” left out
as §8

Phelipanche ramosa pv T = assay: Germinative activity on parasitic plants; assay type: in vivo; conditions: counted after 4 days
Description: as §2, §3
(§9) Two populations of Phelipanche ramosa were used in this study, pathovar (pv) C and T, described in the publication by Benharrat et al. (2005). Seeds of Phelipanche ramosa pathovar C were collected at Saint Martin de Fraigneau, France, on broomrapes parasitizing winter oilseed rape (Brassica napus L.) in 2005 and seeds of Phelipanche ramosa pathovar T were collected in Sarthe, France, on broomrapes developing on hemp (Cannabis sativa L.) in 2007.
as §5, §6, §7, §8

Phelipanche ramosa pv C = assay: Germinative activity on parasitic plants; assay type: in vivo; conditions: counted after 4 days
Description: as §2, §3, §9, §5, §6, §7, §8

[1] = Experiment 2, FIG. 4, 100 nM and 1 μM
[2] = Experiment 1, FIG. 3, concentration of 1 μM

## CC1=C(C)C(Sc2ccc(Br)cc2)OC1=O (stereo not shown)
Pea mutant rms1; [1]
  inhibitory activity on bud growth (length of bud/branch at node 3, 8 days after treatment at node 3): most active

## CC(C=O)=COC1OC(=O)C(C)=C1C (stereo not shown) [Compound (IIIa), 3-((3,4-dimethyl-5-oxo-2,5-dihydrofuran-2-yl)oxy)-2-methylacrylaldehyde]
Pea mutant rms1; 100 nM and 1 μM
  bud growth inhibition (length of bud/branch at node 3, 8 days after treatment at node 3): slightly less active, exhibit, however, a high activity in terms of bud growth inhibition
Pea mutant rms1; Experiment 8, FIG. 10, 1000 nM
  inhibitory activity on bud growth at node 3 (length of bud/branch 8 days after treatment at node 3): although less than that of GR24, is highly significant

## C=C/C(C)=C/OC1OC(=O)C(C)=C1C (stereo not shown) [Compound (IIIc), (E)-3,4-dimethyl-5-((2-methylbuta-1,3-dien-1-yl)oxy)furan-2(5H)-one]
Pea mutant rms1; 100 nM and 1 μM
  bud growth inhibition (length of bud/branch at node 3, 8 days after treatment at node 3): slightly less active, exhibit, however, a high activity in terms of bud growth inhibition

## CC1=C(C)C(Sc2ccc(C(F)(F)F)cc2)OC1=O (stereo not shown) [Compound (IIc), 3,4-dimethyl-5-((4-(trifluoromethyl)phenyl)thio)furan-2(5H)-one]
Pea mutant rms1; [1]
  inhibitory activity on bud growth (length of bud/branch at node 3, 8 days after treatment at node 3): most active

## CC1=C(C)C(Oc2ccc(Cl)cc2)OC1=O (stereo not shown) [Compound (II′d), 5-(4-chlorophenoxy)-3,4-dimethylfuran-2(5H)-one]
Pea mutant rms1; [2]
  inhibitory activity on bud growth (length of bud/branch at node 3, 8 days after treatment at node 3): exhibit an inhibitory activity on bud growth at node 3

## CC1=C(C)C(Oc2ccc(Br)cc2)OC1=O (stereo not shown) [Compound (II′e), 5-(4-bromophenoxy)-3,4-dimethylfuran-2(5H)-one]
Pea mutant rms1; [2]
  inhibitory activity on bud growth (length of bud/branch at node 3, 8 days after treatment at node 3): exhibit an inhibitory activity on bud growth at node 3

## CC1=C(C)C(Oc2ccc3ccc(=O)oc3c2)OC1=O (stereo not shown) [Compound (II″g), 7-[3,4-dimethylfuran-2(5H)-one]oxycoumarin]
Pea rms1 mutants; 3 μM in hydroponic culture solution, FIG. 13
  length of the branches at nodes 3 to 4: an activity on all the branches of nodes 3 to 4, and also an effect on plant height, which are both greater than those of the comparative compound GR24
Pea rms1 mutants; 3 μM in hydroponic culture solution, FIG. 14
  plant height: an effect on plant height, which are both greater than those of the comparative compound GR24

## CC1=CC(O/C=C2\CCOC2=O)OC1=O (stereo not shown) [GR5]
MRC5 cells
  inhibition at 100 µM: 66 ± 1%
  inhibition at 10 µM: 0%

## CC1=CC(O/C=C2/C(=O)OC3c4ccccc4C[C@H]23)OC1=O (stereo partly shown) [GR24, reference compound]
Orobanche cumana
  Percentage of maximum germination induced: 78 ± 5%
Orobanche minor
  Percentage of maximum germination induced: 81 ± 5%
MRC5 cells
  inhibition at 100 µM: 97 ± 1%
  inhibition at 10 µM: 0%
Pea rms1 mutants; 1 μM in hydroponic culture solution, FIG. 12
  plant height: significant effect on plant height is also demonstrated, comparable between the comparative compound GR24 and the compound in accordance with the invention (IIa)
Striga hermonthica
  Percentage of maximum germination induced: 57 ± 5%
Phelipanche ramosa pv T
  Percentage of maximum germination induced: 87 ± 7%
Phelipanche ramosa pv C
  Percentage of maximum germination induced: 89 ± 6%
